“Also recorded” adds a separate entry of the source.
What was measured:
[1] = estimated; cited from earlier work
primary cortical neurons = assay: In vitro model of stroke: nuclear size (apoptotic nuclei) of cortical neurons 24 hours after ischemia; format: cell-based, mouse; conditions: for number of apoptotic neurons (nuclear size <30 μm2): vs non-treated neurons during ischemia
Experimental: (§1) In order to mimic neuronal ischemia in vitro, primary cortical neurons were culture in vitro for 6 days. After this time either a total ischemia or a partial ischemia were performed.
(§2) Total ischemia: on the day of ischemia medium was changed to PBS (pH=6.5) that had been previously bubbled with N2 to remove all O2. In the case of total ischemia, in order to ensure total lack of oxygen in the PBS, dithionite was added to the PBS to capture the remaining diluted O2. This process ensured the absence of both nutrients and O2 as it would be expected at the core of a stroke.
(§3) Penumbra: to mimic penumbra, normal medium was changed to a mixture of medium without antioxidants and PBS (50:50) and bubbled with N2 to remove diluted O2.
(§4) In both protocols neurons were then placed inside a gas chamber filled with N2 and left there for 45 minutes (ischemia) or 1 hour (penumbra). In order to mimic reperfusion, PBS or medium/PBS were then substituted with medium without antioxidants and left in the incubator overnight.
(§5) Normoxia: to mimic normoxia, normal medium was changed with normal medium without antioxidants and placed in the incubator under normal conditions for 45 minutes or 1 hour. Then medium was exchanged again with normal medium and left overnight in the incubator.
(§6) In all conditions neurons were fixed and stained with DRAQS (a nuclear marker) and NeuN (a neuronal marker) on the next day. Images were taking with an OPERA microscope and analysed with the help of FIJI Image analysis software. The more reliable outcome parameter to detect apoptosis was the surface of the nuclei in μm2 and the number of neurons alive after 24 hours. As it can be observed in FIGS. 1 and 2, the frequency distribution of nuclear sizes dramatically changed between normoxia and ischemia without treatment.

mouse cortical neurons [2] = assay: In vitro model of stroke: number of cortical neurons alive / survival rate 24 hours after ischemia; format: cell-based; conditions: for survival rate of mouse cortical neurons 24 hours after ischemic insult: 45 minutes ischemic insult, P<0.05; for number of cortical neurons alive / survival rate 24 hours after ischemia: penumbra like conditions, 60 minutes ischemic insult, P<0.001
Experimental: as §1, §2, §3, §4, §5, §6

mouse cortical neurons [3] = assay: In vitro model of stroke: LDH released to the media (PIERCE LDH cytotoxicity assay); format: cell-based; conditions: for concentration of LDH in the media 24 hours after the ischemic insult: 45 minutes ischemic insult, vs ischemic non-treated neurons, p<0.05
Experimental: as §1, §2, §3, §4, §5
Additionally, the amount of LDH released to the media was determined. LDH is released to the media during necrosis (immediate cell death after an insult, 0-6 hours after insult) and in the late stages of apoptosis in vitro (6 to 24 hours after insult) through the disruption of the plasmatic membrane. For this we used the PIERCE LDH CYTOTOXICITY ASSAY from Life Technologies.

Mice [4] = assay: Transient filament MCA occlusion model (fMCAo) with infarct volumetry; format: in vivo, mouse
From the text: Transient filament MCA occlusion model (fMCAo): Mice are anaesthetized with isoflurane delivered in a mixture of 30% O2 and 70% N2O. An incision is made between the ear and the eye in order to expose the temporal bone. A laser Doppler probe is affixed to the skull above the MCA territory, and mice are placed in the supine position. An incision is made in the midline neck region, and the common carotid artery and left external carotid artery are isolated and ligated; a 2-mm silicon-coated filament (Doccol, #701912PKRe) is inserted into the internal carotid artery, and MCA occlusion is confirmed by a corresponding decrease in blood flow (i.e., a decrease in the laser Doppler flow signal). After 60 minutes of occlusion the filament is removed and either the vehicle, or 5, 10, 20 or 40 mM of GA (concentration for the total expected infact area) is injected. […]
Infarct volumetry: Brains are removed 24 and 72 hours after stroke induction and frozen on powdered dry ice. […] Infarct area is measured in each section using ImageJ software (NIH). In the fMCAo model, an edema correction for infarct volume is calculated using the following formula: (Ischemic area)=(Direct lesion volume)−[(Ipsilateral hemisphere)−(Contralateral hemisphere)] was performed. The total infarct volume is calculated by integrating the measured areas and intervals between the sections.

mouse hearts = assay: Ischaemia-reperfusion in perfused hearts (Langendorff); conditions: 60 min global ischaemia, 60 min reperfusion with 5, 10, 20 or 40 mM glycolic acid
Experimental: Ischaemia-reperfusion in perfused hearts: Ischemia reperfusion in perfused hearts is performed. After sodium pentobarbital overdose (150 mg/kg i. p.), mouse hearts are quickly excised and perfused through the aorta in a Langendorff apparatus with a modified Krebs-Henseleit bicarbonate buffer (in mmol/l: 140 NaCl, 24 NaHCO3, 2.7 KCl, 0.4 KH2PO4, 1 MgSO4, 1.8 CaCl2 and 11 glucose, 95% O2-5% CO2 at 37° C.) at constant flow perfusion pressure of 80 mmHg. Left ventricular (LV) pressure is monitored with a water-filled latex balloon inserted into the LV and inflated to obtain an end-diastolic pressure (LVEDP) of 6-8 mmHg. LV developed pressure (LVdevP) is calculated as the difference between LV systolic pressure and LVEDP. After 30 minutes (min) of normoxic perfusion, mouse hearts are subjected to 60 min of normothermic global ischaemia followed by 60 min of reperfusion with vehicle or 5, 10, 20 or 40 mM glycolic acid. Lactate dehydrogenase (LDH) activity is spectrophotometrically measured in samples collected from the coronary effluent at different times throughout the perfusion period and was considered an indirect measure of necrosis. After 60 min of reperfusion, heart slices were incubated in […] to outline the area of necrosis. Hearts submitted to normoxic perfusion during 120 min served as time control series. […]

cardiomyocytes = assay: Ischaemia-reperfusion in isolated cardiomyocytes; format: cell-based, mouse; conditions: simulated ischaemia-reperfusion
Experimental: Ischaemia-reperfusion in isolated cardiomyocytes: Freshly isolated cardiomyocytes are obtained from mouse hearts by retrograde collagenase perfusion. Rhod-shaped calcium tolerant cardiomyocytes are selected by differential centrifugation and albumin gradient and are plated on laminin-coated glass bottom coverslips (for confocal studies) or on 4% fetal calf serum pretreated multiwell dishes. To simulate IR in cardiomyocytes, two independent approaches are used: anoxic workstation under controlled atmosphere of 0% 02-5% H2 at 37° C. (Invivo2 Workstation Ruskinn, Bridgend, UK) and microscope-adapted microperfusion chamber (RC-43C/BS4 64-0371 Harvard Apparatus, Holliston, Mass., USA). For the anoxic workstation, cardiomyocytes are plated in 96-wells dishes, placed within the anoxic atmosphere and incubated for 15 min with glucose-free acidic ischaemic buffer (previously deoxygenated in an autoclave and bubbled with N2 for 20 min) containing (in mmol/l): 140 NaCl, 3.6 KCl, 1.2 MgSO4, 1 CaCl2, 20 HEPES, pH 6.4, and supplemented with 4 μmol/l resazurin, 100 μmol/l ascorbic acid, 0.5 mmol/l dithionite and 100 U/ml superoxide dismutase. For reperfusion, ischaemic buffer is washed out and oxygenated, glucose-containing control buffer (pH 7.4) is added for 10 min. […]

Mice [5] = assay: In vivo model of limb ischemia (unilateral femoral ligatures); parameters: species or system mouse; conditions: injected systemically when ligatures are removed or before ligation
Experimental: In vivo model of limb ischemia: Mice are submitted to unilateral femoral ligatures for a few hours (4-5) to a few days. Glycolic acid or vehicle are injected systemically when the ligatures are removed. Alternatively, glycolic acid is given before ligation systemically. Ischemia is confirmed by clinical scores (tissue and functional damages by gait analysis) and methoxyisobutylisonitrile (MIBI) scintigraphies at different days 0, 4, 6, 10, 20, and 30. Histological analysis is also performed to determine the extension of the ischemia.

Rabbits = assay: Model of intestinal ischemia (mesenteric ligation); format: in vivo, rabbit; conditions: injected intraarterially upon removal of the ligation or systemically before ligation
Experimental: Rabbits are anesthetized with 3% barbital, 30-35 mg/intravenous injections. The small intestine is reflected to the left of the abdominal incision and then the SMA and SMV are identified. Mesenteric ischemia is confirmed when the mesenteric pulsation is lost and the intestine becomes pale. Ligation is maintained for 2, 4 and 6 hours. […] After removing the ligation, the animal is led free for 1 and 3 days and then is intracardially perfused. Intestinal samples are embedded in paraffin and sections are stained with a nuclear staining. Nuclear size distribution is analysed in different ischemic areas and compared to that of non-ischemic areas.

Which minimum toxic dose [1] does the source give for `OCCOCCO` [diethylene glycol] here?
Its minimum toxic dose is 0.14 mg glycolic acid per kg of body weight.

Which “more normal size nuclei (nuclear surface >30 μm2) 24 hours after ischemia” value (primary cortical neurons; 5 mM pretreatment or 10 and 20 mM during reperfusion, vs control neurons that underwent ischemia without treatment) does the source give for `O=C(O)CO` [glycolic acid, 2-hydroxyethanoic acid] here?
The value was “up to 65%”.

And the “number of apoptotic neurons (nuclear size <30 μm2)” value (from here on “number of apoptotic neurons”) (primary cortical neurons; 10 mM during reperfusion, p<0.01)?
The value was “reduces the number of apoptotic neurons”.

And the “shift of the nuclear size to smaller apoptotic nuclei induced by ischemia” value (from here on “shift of the nuclear size”) (primary cortical neurons; 10 mM glycolic acid during reperfusion)?
The value was “partially reversed”.

What about the “number of apoptotic neurons” value (primary cortical neurons; 20 mM during reperfusion, p<0.01) of the same molecule?
Its value is “reduces the number of apoptotic neurons”.

And the “shift of the nuclear size” value (primary cortical neurons; 20 mM glycolic acid during reperfusion)?
Its value is “partially reversed”.

And the “shift of the nuclear size” value (primary cortical neurons; 4 days pretreatment with 5 mM glycolic acid)?
Its value is “partially reversed”.

And the “protective effect (rescue)” value (primary cortical neurons; penumbra conditions)?
Its value is 100%.

And the “number of apoptotic neurons” value (primary cortical neurons; pre-treatment with 5 mM, p<0.05)?
The value was “reduces the number of apoptotic neurons”.

What about the “shift of the nuclear size” value (primary cortical neurons; pretreatment with 2.5 mM glycolic acid) of the same molecule?
Its value is “partially reversed”.

And the “survival rate of mouse cortical neurons 24 hours after ischemic insult” value (“survival rate … after ischemic insult” for short) (mouse cortical neurons [2]; 2.5 mM during reperfusion)?
Its value is “increases the survival rate”.

What about the “survival rate … after ischemic insult” value (mouse cortical neurons [2]; 5 mM during reperfusion) of the same molecule?
The value was “increases the survival rate”.

And the “survival rate … after ischemic insult” value (mouse cortical neurons [2]; 5 mM during reperfusion, listed as GA)?
The value was “enough to rescue the effect of the ischemia”.

What about the “number of cortical neurons alive / survival rate 24 hours after ischemia” value (mouse cortical neurons [2]; 10 mM during reperfusion) of the same molecule?
Its value is “increased cortical neurons survival; also recorded: increases the survival rate”.

And the “number of cortical neurons alive / survival rate 24 hours after ischemia” value (mouse cortical neurons [2]; 20 mM during reperfusion)?
Its value is “increases the survival rate”.

What about the “survival of mouse cortical neurons” value (mouse cortical neurons [2]; concentrations lower than 5 mM given during reperfusion (data not shown)) of the same molecule?
Its value is “did not increase survival”.

What about the “neuronal cell death / protection against ischemia, 24 hours after ischemia” value (mouse cortical neurons [2]; mouse cortical neurons, vs non-treated neurons undergoing ischemia, applied before ischemia or during reperfusion) of the same molecule?
Its value is “protects neurons from ischemia; also recorded: significantly decreases neuronal cell death; also recorded: protects against different degrees of ischemia both when applied before or after the acute ischemic insult”.

What about the “protection of neurons in normoxia conditions” value (mouse cortical neurons [2]; pretreatment with 2.5 mM) of the same molecule?
Its value is “protects neurons against the adverse conditions inherent to an in vitro setting”.

What about the “protection of neurons in normoxia conditions” value (mouse cortical neurons [2]; pretreatment with 5 mM) of the same molecule?
Its value is “protects neurons against the adverse conditions inherent to an in vitro setting”.

What about the “concentration of LDH in the media 24 hours after the ischemic insult” value (mouse cortical neurons [3]; 2.5 mM during reperfusion) of the same molecule?
The value was “decrease the concentration of LDH significantly; also recorded: reduces apoptosis”.

What about the “concentration of LDH in the media 24 hours after the ischemic insult” value (mouse cortical neurons [3]; 5 mM during reperfusion) of the same molecule?
The value was “decrease the concentration of LDH significantly; also recorded: reduces apoptosis”.

And the “concentration of LDH in the media” value (mouse cortical neurons [3]; concentrations lower than 5 mM given during reperfusion)?
Its value is “decreased the concentration of LDH in the media”.

And the “effect on LDH levels in normoxia” value (mouse cortical neurons [3]; normoxic conditions, 2.5 and 5 mM)?
Its value is “did not observe any difference between treatments; also recorded: cannot be observed”.

And the “decrease in blood flow” value (Mice [4]; 5, 10, 20 or 40 mM GA injected after 60 minutes of occlusion)?
Its value is “less severe decrease in blood flow”.

What about the infarct volume (Mice [4]; brains removed 24 and 72 hours after stroke induction) of the same molecule?
The infarct volume was “reduce the infarct volume size”.

What about the “necrosis (LDH activity, area of necrosis)” value (mouse hearts) of the same molecule?
Its value is “reduced necrosis compared to controls”.

What about the “number of cardiomyocytes alive 24 hours after ischemia” value (cardiomyocytes) of the same molecule?
The value was “increased number of cardiomyocytes alive”.

And the “extension of the ischemia and cell death” value (Mice [5])?
The value was “reduce the extension of the ischemia and cell death”.

And the “number of apoptotic nuclei and ischemic areas” value (Rabbits)?
Its value is “reduce the number of apoptotic nuclei and the ischemic areas”.
